{"source": "paper PMC12749748", "about": "“Chemically-induced degradation of the endoplasmic-reticulum stress sensor IRE1 by a VHL-recruiting chimera” (Nature Communications, 2025)", "key": {"IRE1": {"system": "IRE1", "design": "method as in earlier work", "conditions": "VHL:G6374:IRE1; cited from earlier work"}, "AMO1 cells": {"system": "AMO1 cells", "assay": "Global proteomics of protein depletion in AMO1 cells", "format": "cell-based", "conditions": "1 µM, 4 h", "procedure": "One milligram of protein lysate in denaturing buffer (8 M Urea, 20 mM HEPES, pH 8.0) was reduced (5 mM dithiothreitol (DTT), 45 min at 37 °C), alkylated (15 mM iodoacetamide (IAA), 20 min at room temperature in the dark), and quenched (5 mM DTT, 15 min at room temperature in the dark). Proteins were pelleted by chloroform-methanol precipitation. The resulting pellet was resuspended in denaturing buffer, diluted to 4 M Urea, and digested for 4 h at 37 °C with lysyl-endopeptidase (Wako) at an enzyme to protein ratio of 1:100. The sample was further diluted to 1.3 M Urea and subjected to overnight enzymatic digestion at 37 °C with sequencing grade trypsin (Promega, enzyme: protein ratio = 1:50). Resultant peptides were acidified with 20% Trifluoroacetic acid (TFA, 1% final concentration), centrifuged at 18,000 × g for 15 min, and desalted using a Sep-Pak C18 column (Waters). […]\nFor the global proteome, LC-MS/MS analysis was performed by injecting 1 μL of each fraction on an Orbitrap Eclipse mass spectrometer (Thermo Fisher) coupled to a Dionex Ultimate 3000 RSLC (Thermo Fisher) employing a 25 cm IonOpticks Aurora Series column (IonOpticks, Parkville, Australia) with a gradient of 2% to 30% buffer B (98% ACN, 2% H2O with 0.1% FA, flow rate = 300 nL/min). Global proteome samples were analyzed with a total run time of 95 min. […]"}, "[1]": {"molecular_target": "T1, IRE1.KR with recombinant CRL2^VHL complex (Homo sapiens, UniProt O75460+P40337)", "T1 construct": "Recombinant human IRE1.KR (G547-L977) was purified using an established protocol; His6 (with TEV protease cleavage site) (N, cleaved yes); made in house; host or cells: Sf9 (IRE1.KR)", "assay": "In vitro ubiquitination of recombinant IRE1.KR by CRL2^VHL", "format": "biochemical", "conditions": "0.2 µM IRE1, 0.2 µM G6374, UBE2R1, native ubiquitin", "procedure": "The protocol for the in vitro ubiquitination experiment was adapted from a previous publication.\nThe ubiquitination reaction buffer contained 30 mM Tris pH 7.5, 100 mM NaCl, 5 mM MgCl2, 2 mM ATP, and 2 mM DTT. Recombinant proteins and G6374 with high stock concentrations were pre-diluted in binding buffer containing 30 mM Tris, pH 7.5, 100 mM NaCl, 1 mM DTT for the purpose of accurate pipetting.\nThe 0.2 µM IRE1: 0.2 µM G6374 (or DMSO) complex was pre-incubated for 15 min at room temperature, then incubated with the neddylation reaction mixture containing 0.2 µM VHL:EloB:EloC, 0.2 µM CUL2-RBX1, 0.1 µM NAE1:UBA3, 1 μM UBE2M, 3 μM NEDD8 for another 15 min at room temperature. Meanwhile, the ubiquitination reaction mixture containing 1 μM UBE1, 5 μM UBE2R1 (or UBE2D1, UBE2D2), and 500 μM ubiquitin or methyl-ubiquitin was prepared and pre-incubated for 15 min before incubation with the neddylation reaction mixture containing IRE1:G6374. Samples were taken at each timepoint and quenched in NuPage LDS buffer supplemented with NuPAGE sample reducing agent, then boiled at 95 °C for 10 min. Ubiquitinated products were visualized by IB with the IRE1 antibody."}, "U2OS cells": {"system": "U2OS cells", "assay": "Incucyte cell confluency, U2OS cells", "format": "cell-based", "conditions": "U2OS shIRE1 cells, titration", "procedure": "For non-adherent AMO1, KMS27, and OPM2 cells, cells were plated at 5000 cells/well in ultra-low attachment (ULA) 96-well plates (Costar, #7007) and centrifuged at 600 × g for 5 min for spheroid formation. For adherent U2OS and Colo201 cells, 2000 cells/well were seeded in a clear flat-bottom 96-well plate (Costar, #3595). Treatments were added at the time of cell seeding, and cells were cultured in complete RPMI media to a final volume of 200 µL/well. Cultures were maintained at 37 °C throughout the duration of the experiment. Cell confluency was tracked using the Incucyte live-cell imaging system (Sartorius S3). Picture frames were captured every 4 h with a 4× objective, and cell confluency (%) from the total well area as a function of time was calculated using the Incucyte software (version 2023 A Rev2)."}}}
{"smiles": "Cc1ncsc1-c1ccc(CNC(=O)[C@@H]2C[C@@H](O)CN2C(=O)[C@@H](NC(=O)CCCCN2CCN([C@H]3CC[C@H](Nc4ncc5ccc(=O)n(C(C)C)c5n4)CC3)CC2)C(C)(C)C)cc1", "note": "[G6374]", "values": [{"measurement": "Dmax", "setting": "IRE1", "result": 95, "unit": "%"}, {"measurement": "protein depletion by global proteomics, G6374 versus G2642", "setting": "AMO1 cells", "result": "IRE1 as the most substantially and significantly depleted protein target"}, {"measurement": "IRE1.KR polyubiquitination in vitro", "setting": "[1]", "result": "clear G6374-dependent IRE1 polyubiquitination"}, {"measurement": "proliferation rate (cell confluency)", "setting": "U2OS cells", "result": "did not affect the proliferation rate"}]}
